Assays:
LasR [1] = biological target: T1, LasR (Pseudomonas aeruginosa, UniProt P25084); test: Two plasmid E. coli LasR reporter (luciferase); assay type: cell-based, P. aeruginosa; settings: for Percent Activity (LasR reporter): inhibitor at 100 μM, relative to wild-type (100%); for remaining activity at 100 µM: read-out: Percent Activity (LasR reporter)
T1 construct: expressed in transfected cells; host or cells: E. coli TOP10 carrying pBAD-A 6xHIS-lasR and pCS26 plasB-luxCDABE
Source text: (§1) A two plasmid E. coli reporter system was constructed, in which LasR or RhlR was expressed under an arabinose inducible promoter (e.g., LasR or RhlR was cloned into a pBAD-A vector and expressed upon addition of arabinose) in the presence of a LasR-dependent or RhlR-dependent promoter fused to luciferase (e.g., cloned into a pCS26 vector). Upon the addition of arabinose and in the presence of AI, LasR or RhlR were expressed, formed a complex with the cognate AI, underwent dimerization, and activated transcription of the reporter construct. All potential inhibitors were tested at 100 μM. The percent activity was reported relative to wild-type (100%).
(§2) A sample experimental protocol for the RhlR reporter (see, e.g., Table 5A2) or for the LasR reporter (see, e.g., Table 5A1).
(§3) A clean plate was filled with water, 70% ethanol, LB, and primed with cultured cells to ensure that initial dispensing led to the appropriate volume of cells being added to the wells. 20 μL of this solution was dispensed into appropriate wells in a 384-well plate that contained small molecule antagonists. 20 μL of this solution was dispensed into wells intended for a positive control that contain only DMSO. To the culture that was saved for negative control, arabinose was added to 0.1%. An equal volume of DMSO was added to the culture, relative to the amount of AI added to the other culture. 20 μL of culture was dispensed into wells intended for a negative control that contained only DMSO and no small molecule QS inhibitors. Plates were incubated at 30° C. in the plate shaker. Plates were read using a 384 LUM/OD 600 setting on the plate reader after 4 hours of induction.
For data analysis, the average and standard deviation for each of the control groups were determined. In a screen, for each data point, the number of standard deviations from the mean was determined to determine if the inhibitor was a “hit”. In a dose response curve, for each data point, the percent inhibition was determined: 1−(X/M), where X=single data point and M=is the mean of the AI only control group. The dose response curve was then plotted as a function of % inhibition (y) v. [inhibitor] on a log scale (x).

RhlR = biological target: T2, RhlR (Pseudomonas aeruginosa, UniProt P54292); test: Two plasmid E. coli RhlR reporter (luciferase); assay type: cell-based, P. aeruginosa; settings: for Percent Activity (RhlR reporter): inhibitor at 100 μM, relative to wild-type (100%); for remaining activity at 100 µM: read-out: Percent Activity (RhlR reporter)
T2 construct: expressed in transfected cells; host or cells: E. coli TOP10 carrying pBAD-A 6xHIS-rhlR and pCS26 prhlA-luxCDABE
Source text: as §1, §2
For the RhlR reporter, strains were re-streaked on LB+appropriate antibiotic before each experiment and grown overnight at 37° C. Three colonies were picked and a 3 mL overnight culture in LB+appropriate antibiotic was started. The culture was grown overnight at 37° C. The overnight culture was back-diluted 1:1000 into fresh LB+appropriate antibiotic in an appropriate volume, depending on the number of plates being screened. Each well in a 384 well plate received about 20 μL of culture. An additional 25 mL of culture was reserved for priming the plate filler. The culture was grown at 37° C. until OD600˜0.5, which took about 4 hrs. A 384-well plate was prepared. Stock concentrations of molecules (e.g., small molecule inhibitors) were 10 mM.
For a 10-point dose response for the RhlR reporter, a 1:3 dilution of molecule:DMSO (333 μL of stock molecule, 667 μL of DMSO using a 1 mL pipetteman) was used for accurate dispensing by the robot dispenser. Upon a prompt by the software, the appropriate concentration of each molecule was added. Each well was normalized with a DMSO standard to bring the total % volume of DMSO up to 1% using the robot. Plates were set aside with dispensed drugs until the cells were ready. Once the cells reached an OD600 of 0.5, an appropriate amount of cell culture was dispensed for screening into an Erlenmeyer flask. (Extra culture was saved for a negative control.) Arabinose was added to 0.1% final concentration (1:1000 dilution from stock solution), and AI was added to 10 μM (ED75) from a 10 mM stock. The components of the flask were mixed together by swirling. As mentioned previously, other concentrations of AIs may be suitable, e.g., the concentrations may be in the range of 2 uM to 100 uM, from 10 uM to 100 uM or from 2 uM to 10 uM. In some embodiments, 2 nM of 3-O—C12-HSL (for LasR) and 10 uM of C4-HSL (for RhlR) were used.
as §3
For data analysis, the average and standard deviation for each of the control groups were determined. In a screen, for each data point, the number of standard deviations from the mean was determined to determine if the inhibitor was a “hit”. In a dose response curve, for each data point, the percent inhibition was determined: 1−(X/M), where X=single data point and M=is the mean of the AI only control group. […]

LasR and RhlR = test: Receptor specific reporter assays for LasR and RhlR activity (stated in words); assay type: cell-based, P. aeruginosa
Source text: wherein R may be H or OH, and two or more of the R substituents of a given compound are OH; R′ is H or OH; and R″ is H or OH. […] A variety of compounds were obtained and tested for activity (e.g., inhibition of receptor specific reporter assays for LasR and RhlR activity).
as §1

LasR [2] = biological target: T1, LasR; test: 10-point autoinducer dose response on LasR reporter with QS inhibitor (competition); assay type: cell-based, P. aeruginosa; settings: inhibitor at 100 μM; increasing concentrations of AI
Protocol: FIG. 4. QS inhibitors bind non-competitively to LasR. A 10-point dose response curve with increasing concentrations of autoinducer 3-O—C12-HSL (AI) was generated for a variety of QS small molecule inhibitors. In this figure, curve C12 (filled circle) corresponds to the absence of inhibitor. […] Instead, the inhibitors bind elsewhere on LasR to prevent LasR-dependent transcription.
Using known molecular biology techniques, assays were performed to determine whether binding of the small molecule QS inhibitors and the AIs occurred by a competitive or by another inhibitory mechanism (see, e.g., FIG. 4).
Thus, a 10-point dose response curve with concentrations of AI ranging from 10 pM to 5 nM was generated for a variety of QS small molecule inhibitors. Curve C12 (dotted filled line) corresponds to the absence of inhibitor. […] Instead, the inhibitors bind elsewhere on LasR to prevent LasR-dependent transcription.

[3] = tested on: Wild-type P. aeruginosa pyocyanin production; test: Pyocyanin virulence factor production; assay type: cell-based; settings: 100 μM overnight, back diluted, grown 18 hrs with inhibitor
Protocol: FIG. 6. QS inhibitors reduce the level of virulence factor production in P. aeruginosa. The ability of the small molecule inhibitors to reduce virulence factor production by monitoring pyocyanin production was assessed.
The ability of the small molecule QS inhibitors to reduce virulence factor production by monitoring production of pyocyanin as a representative virulence factor was assessed. Wild-type P. aeruginosa was incubated with the indicated molecules at 100 μM overnight, back diluted, and grown for 18 hrs in the presence of QS inhibitor.
By varying the concentration of QS inhibitors, dose dependence curves were generated.

T2 sequence (P54292 whole entry): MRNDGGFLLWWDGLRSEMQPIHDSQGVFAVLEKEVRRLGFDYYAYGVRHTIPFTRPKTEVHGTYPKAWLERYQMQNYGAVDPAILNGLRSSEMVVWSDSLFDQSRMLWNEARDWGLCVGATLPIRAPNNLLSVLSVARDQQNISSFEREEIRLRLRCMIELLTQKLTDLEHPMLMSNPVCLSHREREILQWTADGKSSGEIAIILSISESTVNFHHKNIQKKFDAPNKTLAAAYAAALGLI
T1 sequence (P25084 whole entry): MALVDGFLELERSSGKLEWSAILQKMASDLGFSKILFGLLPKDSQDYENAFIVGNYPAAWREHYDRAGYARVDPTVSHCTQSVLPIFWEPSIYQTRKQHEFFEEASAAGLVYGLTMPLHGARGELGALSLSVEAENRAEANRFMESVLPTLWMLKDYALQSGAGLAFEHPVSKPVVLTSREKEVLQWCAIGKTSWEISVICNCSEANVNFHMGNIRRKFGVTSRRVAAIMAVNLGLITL

SMILES	Percent Activity (LasR reporter) (LasR [1])	Percent Activity (RhlR reporter) (RhlR)	remaining activity at 100 µM (LasR [1]) [%]	remaining activity at 100 µM (RhlR) [%]	activity (inhibition of receptor specific reporter assays for LasR and RhlR activity) (LasR and RhlR)	competition with autoinducer 3-O—C12-HSL for LasR (LasR [2])	pyocyanin production [3]
O=c1cc(-c2ccccc2)oc2ccc(O)cc12 [Molecule 50]	Inactive	Inactive	–	–	–	–	–
O=C1CC(c2ccc(O)cc2)Oc2cc(O)cc(O)c21 (stereo not shown) [Molecule 4]	–	–	63.3	60.5	–	–	–
O=c1cc(-c2ccc(O)cc2)oc2cc(O)cc(O)c12 [Molecule 43]	–	–	82.4	84.5	–	–	–
O=c1c(O)c(-c2ccc(O)c(O)c2)oc2cc(O)cc(O)c12 [Molecule 48, Quercetin]	–	–	44.4	40.2	inhibit both LasR and RhlR	did not compete	inhibit pyocyanin to varying degrees
O=c1cc(-c2ccccc2)oc2cccc(O)c12 [Molecule 44]	Inactive	Inactive	–	–	–	–	–
O=c1cc(-c2ccccc2)oc2cc(O)cc(O)c12 [Molecule 3, Chrysin]	–	–	53.1	39.2	inhibit both LasR and RhlR	did not compete	inhibit pyocyanin to varying degrees
O=c1cc(-c2ccccc2)oc2c(O)c(O)ccc12 [Molecule 54]	–	–	60.3	54.5	–	–	–
COc1cc(OC)c2c(=O)cc(-c3ccc(O)cc3)oc2c1 [Molecule 52]	Inactive	Inactive	–	–	–	–	–
O=C1CC(c2ccc(O)cc2)Oc2cc(O)cc(O)c21 (stereo not shown) [Molecule 4, Narigenin]	–	–	–	–	active	–	inhibit pyocyanin to varying degrees
O=C(CCc1ccc(O)cc1)c1c(O)cc(O)cc1O [Molecule 1, Phloretin]	–	–	24.1	68.4	inhibit both LasR and RhlR	did not compete	inhibit pyocyanin to varying degrees
COc1cc(OC)c2c(=O)cc(-c3ccccc3)oc2c1 [Molecule 49]	Inactive	Inactive	–	–	–	–	–
O=c1cc(-c2ccccc2)oc2ccc(O)c(O)c12 [Molecule 53]	–	–	16.7	31.8	–	–	–
O=c1cc(-c2ccccc2)oc2cc(O)ccc12 [Molecule 45]	Inactive	Inactive	–	–	–	–	–
O=c1c(O)c(-c2ccccc2)oc2cc(O)cc(O)c12 [Molecule 55]	Inactive	Inactive	–	–	–	–	–

From patent publication US20190307818A1, “NOVEL ANTIMICROBIAL COMPOSITIONS AND METHODS OF USE” (priority 2016, published 2019)
